Assay results taken from publication PMC10759609, “A novel PDPN antagonist peptide CY12-RP2 inhibits melanoma growth via Wnt/β-catenin and modulates the immune cells” (Journal of Experimental & Clinical Cancer Research : CR, 2024).
Peptide text beside a SMILES is read from it.

Experiments:
[1] = system: A375 cell spheroids (caspase3); assay: Caspase3 immunofluorescence in 3D spheroids; assay type: cell-based; conditions: 3D melanoma cell spheroids (A375 in Fig. S3G legend), 72 h
Procedure: (§1) Prepared melanoma cells spheroids were plated in 48-well plates. Following incubation for 3 days, the spheroids were exposed to different concentrations (0, 50, 100 and 200 μM) of CY12-RP2, and changes in spheroid diameter were detected after 5 days of treatment. Additionally, melanoma cell spheroids were treated with various concentrations of CY12-RP2 as described previously, and after 72 h, the spheroids were stained for immunofluorescence with caspase 3 primary antibody. The specific experimental procedures refer to the following immunofluorescence analysis. Additionally, we co-cultured peptide-stimulated PBMC with spheroids to determine the tumor-killing ability of activated PBMC.
Transwell assays were performed to quantify the modulatory effects of SKL2001 and IWR1 (C). Statistical analysis was performed to evaluate the invasion of cells (D). The power field scale bar, 100 μm. (E) Western blot assays were also performed on EMT-related proteins to identify the effects of SKL2001 and IWR1. […]
(A) Cell viability of melanoma cell lines (A375, A875) treated with 6 peptides except CY12-RP2 at various concentrations for 48 h. […] (C) SPR assay was performed to quantify […]
melanoma cell lines (A375, A875). […] (G) Immunofluorescence staining was performed to measure the caspase3 fluorescence intensity of A375 cell spheroids after treating with CY12-RP2. […]

A375 cells = assay: Colony formation, A375; assay type: cell-based
[2] = system: EMT and apoptosis signaling in A375 cells; assay: Western blot, EMT and apoptosis proteins, A375; assay type: cell-based; conditions: 0, 5, 25 μM, 48 h
Procedure: Melanoma cells were cultured in a 60 mm dish with a complete medium and various peptide concentrations (0 μM, 5 μM, 25 μM). Protein was extracted after cells were cultured or treated for 48 h using protein lysis buffer, separated using a 10% or 15% Bis–Tris PAGE gel (Epizyme Biomedical Technology, Shanghai, China), and transferred onto a PVDF membrane (Thermo Fisher Scientific) according to standard techniques. The Western blots were imaged using Bio-rad Chemidoc MP and quantified using ImageJ software (NIH).

A375 melanoma xenograft = assay: A375 subcutaneous xenograft, BALB/c nude mice; assay type: in vivo; conditions: tail vein, every two days for 15 days
Procedure: Tumorigenesis assays were conducted in vivo using BALB/c nude mice and BALB/c mice from Guangdong Medical Laboratory Animal Center. The animal study was reviewed and approved by the Administrative Committee on Animal Research of Shenzhen International Graduate School, Tsinghua University (Ethical Development No. 16, 10 November 2021). Samples with 5 × 10^5 A375 or B16F10-Luc melanoma cells were diluted in 100 μL PBS and injected subcutaneously into 6- to 8-week-old female BALB/c nude mice or BALB/c mice. 5 days later, the mice were treated with CY12-RP2 by tail vein administration at various doses (25 mg/kg and 100 mg/kg) every two days. The tumor volume and body weight were measured every 2 days, with the calculation of the tumor volume under the assumption of an ellipsoidal tumor as: tumor volume = length × width^2/2. Tumors from BALB/c nude mice were collected and photographed on day 21, while tumors from the allograft mouse model were measured using bioluminescence imaging. The blood collected from the eyes of BALB/c nude mice were stored at 4 °C for 24 h and then centrifuged for 15 min under the indicated conditions (4 °C, 3000 rpm). The supernatant was collected and assayed for drug toxicity using kits, including AST, ALT, TG, and γ-GT. […]

[3] = system: 3D melanoma spheroid (A375); assay: 3D melanoma spheroid / PBMC co-culture; assay type: cell-based; conditions: 0, 2, 10, 50 μM, with increasing concentrations
Procedure: as §1
Fig. 6 Influence of CY12-RP2 on the immune-mediated anti-tumor capacity of PBMC in vitro and in vivo. A The procedure of PBMC isolation from donor peripheral blood, and the ratio of different immune cells in PBMC was assayed by flow cytometry. B PBMCs were stimulated with CY12-RP2 for 48 h, and the cytokine levels in the supernatant were assayed by ELISA. […] E Brightfield and fluorescent microscopy images of A375 cells (red) co-culture with PBMC (GFP) were stimulated with various concentrations (0, 2, 10, 50 μM) of CY12-RP2. Data are presented as mean ± SD. *p < 0.05, **p < 0.01, ***p < 0.001 versus control

CC(C)C[C@H](NC(=O)[C@H](Cc1ccc(O)cc1)NC(=O)[C@@H](N)[C@@H](C)O)C(=O)N[C@@H](CS)C(=O)N[C@H](C(=O)N[C@@H](C)C(=O)N[C@@H](CS)C(=O)N[C@@H](CC(=O)O)C(=O)N[C@@H](Cc1ccc(O)cc1)C(=O)N[C@H](C(=O)N[C@@H](Cc1c[nH]cn1)C(=O)N[C@@H](Cc1c[nH]cn1)C(=O)O)[C@@H](C)O)[C@@H](C)O [CY12-RP2] (H-TYLCTACDYTHH-OH; N-terminus and C-terminus assumed)
level of Caspase3 [1]: significantly increased | colony formation (A375 cells): significantly suppress the colony formation of A375 cells in a dose-dependent manner | expression of E-cadherin, Caspase-9, Caspase-3, and Bax [2]: significantly increased | expression of N-cadherin, vimentin, snail, and BCL2 [2]: decreased | tumor growth (A375 melanoma xenograft; 25 mg/kg and 100 mg/kg, especially 100 mg/kg): significantly inhibited the tumor growth | mean body weight (A375 melanoma xenograft; nude mice, 25 and 100 mg/kg): no significant change | tumor-killing capacity of PBMC [3]: increased
